Experimental findings from paper PMC5485972, “N-Caffeoyltryptamine, a Potent Anti-Inflammatory Phenolic Amide, Suppressed MCP-1 Expression in LPS-stimulated THP-1 Cells and Rats Fed a High-Fat Diet” (International Journal of Molecular Sciences, 2017) are described below.

One assay deals with T1, p38 MAP kinase β (Homo sapiens, UniProt Q15759).
T1 construct: gene MAPK11
As to the kind of experiment: Promega CMGC-1 kinase selectivity profiling system, ADP-Glo kinase assay. Format: biochemical.

For the next assay, the target named is T2, p38 MAP kinase α (Homo sapiens, UniProt Q16539).
T2 construct: gene MAPK14
The assay is described as above. It is filed as biochemical.

Each structure is given as a SMILES string. pIC50: −log10 of the molar value.

T2 sequence (Q16539 2-360): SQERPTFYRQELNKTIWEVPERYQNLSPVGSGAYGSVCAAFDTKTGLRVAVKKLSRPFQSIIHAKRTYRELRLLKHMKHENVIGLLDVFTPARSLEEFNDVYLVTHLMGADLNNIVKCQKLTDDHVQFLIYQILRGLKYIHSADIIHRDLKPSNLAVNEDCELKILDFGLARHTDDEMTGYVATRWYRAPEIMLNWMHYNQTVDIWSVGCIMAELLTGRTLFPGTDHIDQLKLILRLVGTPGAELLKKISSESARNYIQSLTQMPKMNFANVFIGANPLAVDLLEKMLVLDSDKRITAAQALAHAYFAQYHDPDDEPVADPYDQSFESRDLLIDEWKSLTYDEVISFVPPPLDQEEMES
T1 sequence (Q15759 whole entry): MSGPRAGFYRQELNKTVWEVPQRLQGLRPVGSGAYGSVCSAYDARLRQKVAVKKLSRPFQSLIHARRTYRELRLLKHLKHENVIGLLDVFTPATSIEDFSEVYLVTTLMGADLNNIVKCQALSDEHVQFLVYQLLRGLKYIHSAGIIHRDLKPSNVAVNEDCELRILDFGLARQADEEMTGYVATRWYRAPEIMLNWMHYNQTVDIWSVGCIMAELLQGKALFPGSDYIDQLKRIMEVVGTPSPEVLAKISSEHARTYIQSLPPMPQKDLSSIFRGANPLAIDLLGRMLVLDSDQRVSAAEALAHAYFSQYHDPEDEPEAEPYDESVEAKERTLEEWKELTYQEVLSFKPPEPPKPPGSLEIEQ

Turning to `O=C(/C=C/c1ccc(O)c(O)c1)NCCc1c[nH]c2ccccc12` [N-caffeoyltryptamine], the pIC50 (commonly the negative decadic logarithm of the IC50, by convention in mol/L) against p38 MAP kinase β was 4.74; on p38 MAP kinase α, 4.78.
